Assay results taken from paper PMC11660961, “Leucinostatins target Plasmodium mitochondria to block malaria transmission” (Parasites & Vectors, 2024).
“Also recorded” adds a separate entry of the source. *1 amine or outer side, *2 acyl side, *3 side chain or, on linkers, in order; H or OH if unused. Where a SMILES comes first, the peptide text is derived from it. [ ]: non-standard residue; d: D form. The star is where a group is joined. X3 = C[C@@H](CN(C)C(=O)CCCCCNC(=O)CCCC[C@@H]1SC[C@@H]2NC(=O)N[C@@H]21)N*; X2 = C[C@@H](CN(C)C(=O)CCC[n+]1c2cc(N(C)C)ccc2cc2ccc(N(C)C)cc21)N*; X1 = CCC(=O)C[C@H](O)C[C@@H](C)C[C@H](N[*:1])C(=O)[*:2]; Hexenoyl(2E,4S-Me) = CC[C@H](C)/C=C/C(=O)*; Leu(3R-OH) = CC(C)[C@@H](O)[C@H](N)C(=O)O; NH((S)CH(Me)CH2NMe2) = C[C@@H](CN(C)C)N*; Pro(4S-Me) = C[C@@H]1CN[C@H](C(=O)O)C1; NH((S)CH(CH3)CH2NHMe) = CNC[C@H](C)N*; Aib = CC(C)(N)C(=O)O; βAla = NCCC(=O)O

Tests used:
[1] = tested on: human embryonic kidney 293 (HEK293) cells; experiment: Cytotoxicity assay, MTT, HEK293; assay type: cell-based
Description: (§1) Two methods and two types of cells were used to analyze the general cytotoxicity of small molecules. First, MTT (3-(4,5-dimethylthiazol-2-yl)-2,5-diphenyl tetrazolium bromide; Thermo-fisher) and human embryonic kidney 293 (HEK293) were used in cytotoxicity assays. About 20,000 HEK293 cells in 200 µl of culture medium [Dulbecco’s modified eagle medium (DMEM) with high glutamine and 10% fetal bovine serum] were seeded per well in 96-well microplates. About 1 µl of the compounds in DMSO at various dilutions was added into each well to obtain final concentrations of 0, 10, 100, and 1000 ng/mL. Three replicates were conducted for each concentration. Following incubation at 37 °C with 5% CO2 for 24 h, 10 µL of MTT (5 mg/mL in PBS) was added to each well and incubated for 4 h at 37 °C with 5% CO2. All but 25 µL of the medium was removed from the wells, and 100 µL of DMSO was added to each well and incubated at 37 °C for 10 min to dissolve formazan crystals for measurement. Optical density was measured at an absorbance wavelength of 540 nm.

[2] = Cytotoxicity assay, MTT, HEK293; assay type: cell-based, human; conditions: 24 h incubation at 37 °C, three replicates
Description: as §1

mice = tested on: mice; parameters: method as in 2 sources, ref 9 = [9]; PMID 4783199; doi:10.7164/antibiotics.26.157; 9. Arai T Mikami Y Fukushima K Utsumi T Yazawa K A new antibiotic, leucinostatin, derived from Penicillium lilacinum J Antibiot (Tokyo) 1973 26 157 161 10.7164/antibiotics.26.157 4783199 Arai T, Mikam ||| ref 10 (Mikami et al.); conditions: intraperitoneal injection; cited from earlier work
[3] = Reverse-phase C18 HPLC elution time as measure of hydrophobicity; assay type: physicochemical; conditions: chromatographic; semi-prep C18 column (Gemini 5 μm 110A, 250 × 10 mm), gradient 50% methanol to 100% methanol in 50 min, 1 ml per min, A254; approximate time
Description: LA and LB were purified from P. lilacum as described. LA/LB mixture (Sigma) was also purchased from Sigma. LB C-terminus were modified by linking biotin and Atto495. Around 0.4 µmol of LB and 8 µmol of amine-reactive EZ-Link™ NHS-LC-Biotin (Invitrogen; molar ratio: 1:20) were mixed in 2 mL of PBS buffer (pH = 7.2) and reacted for continuous stirring 4 h at room temperature. Then, the reaction sample was analyzed and purified by semi-prep high-performance liquid chromatography (HPLC; Shimadzu) C18 column (Gemini 5 μm 110A, 250 × 10 mm) with gradient elution of 50% methanol to 100% methanol in 50 min. The flow rate was 1 ml per min. The LB-biotin conjugate fraction was dried at room temperature with a rotary vacuum evaporator (Heidolph).
The reaction of LB with amine-reactive Atto495 NHS ester (Sigma) was conducted in DMSO. Firstly, Atto495 NHS ester (3 mM), LB (1 mM), and triethylamine (100 mM) were mixed in DMSO in a 0.2 mL reaction volume and reacted at room temperature for 4 h with continuous stirring while protected from light. The reaction solution was applied to semi-prep HPLC to obtain the conjugate of LB-Atto495 as described above, and the LB-Atto495 was dried for use.
The pure LB was reacted with amine-reactive Atto495 NHS ester in DMSO. The reaction solution was applied to semi-prep HPLC. The conjugate of LB-Atto495 was eluded at 29 min (Fig. 2b). […] On the basis of elution times from the HPLC C18 column, the hydrophobicity of four compounds is LB < LA < LB-Atto495 < LB-biotin.

Hela cells = conditions: read-out: IC50 against Hela cells; cited from earlier work
Description: Leucinostatins have antimicrobial activity against gram-positive bacteria, including Staphylococcus albus, Bacillus subtilis, Sarcina letter, Streptococcus pyrogens, Streptococcus faecalis, and Mycobacterium species, with IC50 values ranging from 2.5 to 100 μM and against some fungal strains with minimal inhibitory concentrations of 10–25 μM [9–11]. In addition, leucinostatins are known as mycotoxins. The IC50 of leucinostatin Α (LA) to MRC-5 (human fetal lung fibroblast cells) is 2 μΜ [12]. […] The IC50 of LA against H ...

[4] = tested on: K562 cell line (human immortalized myelogenous leukemia cell); experiment: Cell proliferation assay, CCK-8 kit, K562; assay type: cell-based
Description: Second, the CCK-8 kit (Sigma) and K562 cell line (human immortalized myelogenous leukemia cell) were used to determine the inhibition of a compound against cell proliferation. About 20,000 cells in 200 µl of culture medium (RMPI-1640 with 10% fetal bovine serum) were seeded per well in 96-well microplates, and then a series of dilutions of the compound from 0 to 1000 ng/ml was added to the medium. The cells were maintained at 37 °C and 5% CO2 for 48 h, and then 20 μl of the CCK-8 solution was added to each well of the plate. The plate was incubated for 1 h, and the A450 was measured using a microplate.

O+ human red blood cells = experiment: Hemolysis assay; assay type: cell-based; conditions: 100 µM, 10% human RBC suspension in PBS pH 7.4, 3 h at 37 °C, A540, triplicate, p > 0.9
Description: About 200 µL of O + human red blood cells were washed three times in PBS (pH 7.4) and then suspended with 1 ml of PBS. Then, 0.3 ml of suspension was diluted with 3 mL of PBS to obtain a 10% suspension. All tested compounds were dissolved in DMSO to prepare a series of dilutions of 1 nM, 10 nM, 100 nM, 1 µM, 10 µM, and 100 µM. The erythrocyte suspension (100 μl per well) was added to a 96-well plate, and the samples were rapidly stirred and incubated at 37 °C with periodic stirring during a 3-h incubation period. The solution was then centrifuged at 2,000 rpm for 5 min. The absorbance of the supernatant was measured at 540 nm using a microplate, and the hemolytic ratio (%) was calculated by comparison with the 100% hemolytic activity caused by distilled water as maximal hemolytic control. The hemolytic % developed by the PBS control was subtracted from all groups. Each experiment was performed in triplicate.

[5] = tested on: P. falciparum transmission to mosquitoes; experiment: Standard membrane feeding assay (SMFA), malaria transmission-blocking activity; assay type: in vivo, Plasmodium falciparum (NF54) in Anopheles gambiae (G3); conditions: same set of cultured parasites and mosquitoes, Fig. 3d
Description: As we described previously, we maintained An. gambiae (G3 strain) at 27 °C with 80% humidity and a 12 h day/night cycle. Larvae were fed fish food for koi, adult mosquitoes were maintained with 10% sugar in water, and female mosquitoes were fed with purchased human blood to lay eggs. Eggs were collected 48 h after blood-feeding with wet filter papers and hatched in pure water.
P. falciparum (NF54) was cultured in the lab with 4% O + -type red blood cells in a complete Roswell Park Memorial Institute (RPMI) 1640 medium with 10% human AB + serum and 12.5 μg/ml of hypoxanthine in a candle jar at 37 °C. Then, 15-day-old cultured P. falciparum-infected cells were collected through centrifugation (300 g for 3 min), and about 100 μl of pellet were resuspended in 1.5 ml fresh AB + -type serum and mixed with 1.4 ml O + -type red blood cells, containing about 0.2% stage V gametocytes. Each candidate compound was dissolved in dimethylsulfoxide (DMSO) and diluted with DMSO to obtain different concentrations. About 2 μl of candidate solution was mixed with 298 μl of P. falciparum-infected blood prepared above and was used to feed 60–80 3–5-day-old An. gambiae with feeders covered with parafilm at 37 °C for 30 min. […] The midguts were stained with 0.1% mercury dibromofluorescein disodium salt in phosphate-buffered saline (PBS), and the oocysts were counted under a light microscope.

[6] = tested on: P. falciparum gametocytes; experiment: Distribution of LB-Atto495 in live gametocytes by fluorescence microscopy; assay type: cell-based, Plasmodium falciparum; conditions: LB-Atto495 (1 µl of 1 mM in 100 µl) incubated 6 h at room temperature, fluorescent microscope
Description: The 15-day-old cultured P. falciparum was collected from a six-well plate. After centrifugation (300 g for 3 min), the cells were washed with 1 ml of PBS three times at room temperature. About 10 μl of cells was suspended in 100 μl of PBS, and 1 μl of LB-Atto495 (1 mM in DMSO) was added and mixed. The cells were incubated at room temperature in the dark for 6 h. The mixture was centrifuged at 300 g for 3 min to collect cells, which were washed three times with 200 μl of PBS. Finally, the cells were deposited on slides to make a blood smear and fixed with methanol. The vector shield antifade mounting medium for fluorescence (VectorLabs, CA) was dropped on the slides. The slides were covered with coverslips and examined under a fluorescent microscope (Nikon Eclipse Ti-S).

CCC(=O)C[C@H](O)C[C@@H](C)C[C@H](NC(=O)[C@@H]1C[C@H](C)CN1C(=O)/C=C/[C@@H](C)CC)C(=O)N[C@H](C(=O)NC(C)(C)C(=O)N[C@@H](CC(C)C)C(=O)N[C@@H](CC(C)C)C(=O)NC(C)(C)C(=O)NC(C)(C)C(=O)NCCC(=O)N[C@@H](C)CN(C)C)[C@H](O)C(C)C [LA, leucinostatin A] ({Hexenoyl(2E,4S-Me)}-[Pro(4S-Me)][X1][Leu(3R-OH)][Aib]LL[Aib][Aib][βAla]-{NH((S)CH(Me)CH2NMe2)})
Density of living cells versus 0 control, HEK293 ([1]; 10 ng/mL, p > 0.7): no significant difference
Reduction of cell proliferation, HEK293 ([1]; 100 nM, 24 h): 38%
IC50 [2]: 89.6 nM
LD50 (mice): 1.6 mg/kg
HPLC elution time (hydrophobicity) [3]: ~28.3 min
IC50 (Hela cells): ~40 nM
Density of living cells versus 0 control, K562 ([4]; 10 ng/mL, CCK-8, p > 0.6): no significant difference
Reduction of cell proliferation, K562 ([4]; 100 nM, CCK-8, 48 h): 43.7%
Hemolysis of red blood cells (O+ human red blood cells): not significantly different
Hemolysis of red blood cells (O+ human red blood cells; listed as leucinostatin A): did not lyse erythrocytes

CCC(=O)C[C@H](O)C[C@@H](C)C[C@H](NC(=O)[C@@H]1C[C@H](C)CN1C(=O)/C=C/[C@@H](C)CC)C(=O)N[C@H](C(=O)NC(C)(C)C(=O)N[C@@H](CC(C)C)C(=O)N[C@@H](CC(C)C)C(=O)NC(C)(C)C(=O)NC(C)(C)C(=O)NCCC(=O)N[C@@H](C)CNC)[C@H](O)C(C)C [LB, leucinostatin B] ({Hexenoyl(2E,4S-Me)}-[Pro(4S-Me)][X1][Leu(3R-OH)][Aib]LL[Aib][Aib][βAla]-{NH((S)CH(CH3)CH2NHMe)})
Blocking of P. falciparum transmission to mosquitoes at 10 nM [5]: completely blocked
HPLC elution time (hydrophobicity) [3]: ~27.5 min

CCC(=O)C[C@H](O)C[C@@H](C)C[C@H](NC(=O)[C@@H]1C[C@H](C)CN1C(=O)/C=C/[C@@H](C)CC)C(=O)N[C@H](C(=O)NC(C)(C)C(=O)N[C@@H](CC(C)C)C(=O)N[C@@H](CC(C)C)C(=O)NC(C)(C)C(=O)NC(C)(C)C(=O)NCCC(=O)N[C@@H](C)CN(C)C(=O)CCC[n+]1c2cc(N(C)C)ccc2cc2ccc(N(C)C)cc21)[C@H](O)C(C)C [LB-Atto495] ({Hexenoyl(2E,4S-Me)}-[Pro(4S-Me)][X1][Leu(3R-OH)][Aib]LL[Aib][Aib][βAla]-X2)
Location in live P. falciparum gametocytes [6]: colocalized with mitochondria; also recorded: binds mitochondria specifically in parasites
HPLC elution time (hydrophobicity) [3]: 29 min

CCC(=O)C[C@H](O)C[C@@H](C)C[C@H](NC(=O)[C@@H]1C[C@H](C)CN1C(=O)/C=C/[C@@H](C)CC)C(=O)N[C@H](C(=O)NC(C)(C)C(=O)N[C@@H](CC(C)C)C(=O)N[C@@H](CC(C)C)C(=O)NC(C)(C)C(=O)NC(C)(C)C(=O)NCCC(=O)N[C@@H](C)CN(C)C(=O)CCCCCNC(=O)CCCC[C@@H]1SC[C@@H]2NC(=O)N[C@@H]21)[C@H](O)C(C)C [LB-biotin] ({Hexenoyl(2E,4S-Me)}-[Pro(4S-Me)][X1][Leu(3R-OH)][Aib]LL[Aib][Aib][βAla]-X3)
Blocking of P. falciparum transmission to mosquitoes at 10 nM [5]: did not inhibit
HPLC elution time (hydrophobicity) [3]: ~31.5 min

O=C(CCCC[C@@H]1SC[C@@H]2NC(=O)N[C@@H]21)NCCCCCC(=O)ON1C(=O)CC(S(=O)(=O)[O-])C1=O.[Na+] (some centres unmarked) [sulfo-NHS-LC-Biotin]
HPLC elution time (hydrophobicity) [3]: ~16.5 min
